One experiment deals with P300 (Homo sapiens, UniProt Q09472). Kind of experiment: percentage of inhibition (degradation) of p300 at 10 nM, Tables 2-4. The format is cell-based. Details: LNCaP or 22RV1 cells that express CBP/P300 proteins were treated with GNE-781 or the bivalent compounds; endogenous in cells; host or cells: LNCaP or 22RV1 (not given). The conditions noted are these: p300, 10 nM; Table 4; read-out: Degradation (10 nM). The method in brief: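 Degradation was measured at 10 nM. Cells or tissue were lysed in RIPA with protease and phosphatase inhibitors for 30 min at 4 °C and cleared, and protein was quantified by BCA. Lysates were resolved by SDS-PAGE, detected by chemiluminescent immunoblot, and bands were quantified by densitometry.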
P300, sequence (Q09472 whole entry): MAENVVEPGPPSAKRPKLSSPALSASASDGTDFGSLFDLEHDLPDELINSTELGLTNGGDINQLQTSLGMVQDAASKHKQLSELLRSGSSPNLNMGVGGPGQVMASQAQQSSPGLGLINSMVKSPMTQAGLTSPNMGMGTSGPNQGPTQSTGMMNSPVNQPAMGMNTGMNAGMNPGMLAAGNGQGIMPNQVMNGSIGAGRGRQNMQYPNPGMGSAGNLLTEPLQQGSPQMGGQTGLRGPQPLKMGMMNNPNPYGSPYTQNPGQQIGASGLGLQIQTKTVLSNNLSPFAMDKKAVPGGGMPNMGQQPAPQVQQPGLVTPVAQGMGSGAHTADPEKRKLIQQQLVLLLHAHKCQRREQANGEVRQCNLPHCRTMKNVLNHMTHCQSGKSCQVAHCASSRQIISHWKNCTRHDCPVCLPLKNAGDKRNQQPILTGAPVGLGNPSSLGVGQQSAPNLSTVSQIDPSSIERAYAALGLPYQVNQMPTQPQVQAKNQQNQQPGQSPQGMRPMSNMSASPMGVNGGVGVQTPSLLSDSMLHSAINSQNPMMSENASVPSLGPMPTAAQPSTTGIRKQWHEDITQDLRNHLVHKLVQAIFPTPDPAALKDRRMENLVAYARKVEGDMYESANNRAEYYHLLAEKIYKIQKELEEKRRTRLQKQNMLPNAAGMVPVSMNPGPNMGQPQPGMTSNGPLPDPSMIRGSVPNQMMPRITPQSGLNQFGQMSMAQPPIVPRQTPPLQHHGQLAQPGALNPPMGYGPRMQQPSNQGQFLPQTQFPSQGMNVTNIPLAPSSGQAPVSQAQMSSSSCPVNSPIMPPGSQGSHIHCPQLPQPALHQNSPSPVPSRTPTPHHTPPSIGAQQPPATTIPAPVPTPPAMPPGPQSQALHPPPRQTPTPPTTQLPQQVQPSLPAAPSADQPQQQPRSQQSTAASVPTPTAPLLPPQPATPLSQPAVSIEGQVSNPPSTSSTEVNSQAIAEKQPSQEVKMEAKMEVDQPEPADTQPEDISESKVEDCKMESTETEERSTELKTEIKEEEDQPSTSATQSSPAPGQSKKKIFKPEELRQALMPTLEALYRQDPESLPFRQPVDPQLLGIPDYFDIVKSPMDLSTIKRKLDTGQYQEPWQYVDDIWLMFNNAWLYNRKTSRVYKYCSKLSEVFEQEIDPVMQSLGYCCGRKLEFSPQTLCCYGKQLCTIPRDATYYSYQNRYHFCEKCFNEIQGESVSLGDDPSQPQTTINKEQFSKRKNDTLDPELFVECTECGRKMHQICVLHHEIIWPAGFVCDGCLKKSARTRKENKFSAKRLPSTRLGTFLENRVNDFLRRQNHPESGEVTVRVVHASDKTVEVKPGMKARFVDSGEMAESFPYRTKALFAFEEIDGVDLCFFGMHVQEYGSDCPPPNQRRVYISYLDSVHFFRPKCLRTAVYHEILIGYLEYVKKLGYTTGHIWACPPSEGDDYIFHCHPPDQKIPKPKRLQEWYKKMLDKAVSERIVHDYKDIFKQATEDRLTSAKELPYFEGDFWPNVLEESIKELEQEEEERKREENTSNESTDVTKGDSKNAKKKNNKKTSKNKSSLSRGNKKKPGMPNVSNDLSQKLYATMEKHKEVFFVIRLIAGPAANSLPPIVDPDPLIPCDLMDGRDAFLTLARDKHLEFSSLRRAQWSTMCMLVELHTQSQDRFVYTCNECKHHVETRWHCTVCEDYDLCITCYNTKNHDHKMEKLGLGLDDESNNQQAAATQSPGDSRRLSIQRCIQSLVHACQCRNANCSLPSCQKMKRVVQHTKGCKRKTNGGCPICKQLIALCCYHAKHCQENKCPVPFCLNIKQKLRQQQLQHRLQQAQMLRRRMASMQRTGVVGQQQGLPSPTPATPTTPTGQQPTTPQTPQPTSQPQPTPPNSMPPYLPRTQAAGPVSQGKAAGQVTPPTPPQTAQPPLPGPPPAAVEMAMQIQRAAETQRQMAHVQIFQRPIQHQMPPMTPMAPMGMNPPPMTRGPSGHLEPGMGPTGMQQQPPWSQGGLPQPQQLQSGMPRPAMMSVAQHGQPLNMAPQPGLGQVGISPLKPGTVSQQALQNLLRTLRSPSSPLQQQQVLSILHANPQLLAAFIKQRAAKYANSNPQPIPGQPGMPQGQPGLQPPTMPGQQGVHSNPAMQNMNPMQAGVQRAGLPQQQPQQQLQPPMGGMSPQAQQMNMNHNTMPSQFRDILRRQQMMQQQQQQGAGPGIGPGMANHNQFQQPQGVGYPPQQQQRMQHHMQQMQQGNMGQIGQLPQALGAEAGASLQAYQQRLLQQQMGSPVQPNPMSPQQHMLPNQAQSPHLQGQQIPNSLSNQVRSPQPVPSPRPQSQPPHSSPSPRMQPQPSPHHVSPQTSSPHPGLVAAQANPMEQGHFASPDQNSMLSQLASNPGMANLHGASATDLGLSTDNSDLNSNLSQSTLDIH

Experiment [1] concerns LNCaP prostate cancer cell. Kind of experiment: LNCaP cell viability (CellTiter-Glo). It is filed as cell-based. The conditions noted are these: Homo sapiens, 72 h; LNCaP cell viability, 3 days, CellTiter-Glo; Table 4. The method in brief: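 CellTiter-Glo luminescence measured three days after dosing with a 12-point 3-fold compound dilution series. LNCaP cells seeded at 5000/well in RPMI 1640 with 10% FBS; data normalized to untreated controls and IC50 fitted by nonlinear least-squares regression.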
Background: Cellular ATP, detected with luciferase, serves as a proxy for viable cell number.

For orientation: IC50 means the point on the concentration scale where inhibition reaches its midpoint. High values mean weaker potency, low ones greater potency.

SMILES strings stand for the structures. Where only a bound is given, the exact number is not on record here.

As for `CC(=O)N1CCc2c(c(N3CCCc4cc(-c5cnn(C)c5)c(C(F)F)cc43)nn2C2CCN(C(=O)CCCN3CCC(CNc4cccc5c4n(C)c(=O)n5C4CCC(=O)NC4=O)CC3)CC2)C1` (centres unmarked) [P-214, 3-(4-(((1-(4-(4-(5-Acetyl-3-(7-(difluoromethyl)-6-(1-methyl-1H-pyrazol-4-yl)-3,4-dihydroquinolin-1(2H)-yl)-4,5,6,7-tetrahydro-1H-pyrazolo[4,3-c]pyridin-1-yl)piperidin-1-yl)-4-oxobutyl)piperidin-4-yl)methyl)amino)-3-methyl-2-oxo-2,3-dihydro-1H-benzo[d]imidazol-1-yl)piperidine-2,6-dione], on P300, the inhibition at 0.01 µM was 20 to 50%. The IC50 in experiment [1] stood at 51.2 nM.

Consider `CC(=O)N1CCc2c(c(N3CCCc4cc(-c5cnn(C)c5)c(C(F)F)cc43)nn2C2CCN(C(=O)CCCN3CCN(Cc4ccc5c(c4)n(C)c(=O)n5C4CCC(=O)NC4=O)CC3)CC2)C1` (centres unmarked) [P-215, 3-(5-((4-(4-(4-(5-Acetyl-3-(7-(difluoromethyl)-6-(1-methyl-1H-pyrazol-4-yl)-3,4-dihydroquinolin-1(2H)-yl)-4,5,6,7-tetrahydro-1H-pyrazolo[4,3-c]pyridin-1-yl)piperidin-1-yl)-4-oxobutyl)piperazin-1-yl)methyl)-3-methyl-2-oxo-2,3-dihydro-1H-benzo[d]imidazol-1-yl)piperidine-2,6-dione], for which the inhibition at 0.01 µM at P300 fell in the range of 20 to 50%. Besides, the IC50 in experiment [1] was found to be 33.1 nM.

For the compound `CC(=O)N1CCc2c(c(N3CCCc4cc(-c5cnn(C)c5)c(C(F)F)cc43)nn2C2CCN(C(=O)CCN3CCN(Cc4ccc5c(c4)n(C)c(=O)n5C4CCC(=O)NC4=O)CC3)CC2)C1` (centres unmarked) [P-216, 3-(5-((4-(3-(4-(5-Acetyl-3-(7-(difluoromethyl)-6-(1-methyl-1H-pyrazol-4-yl)-3,4-dihydroquinolin-1(2H)-yl)-4,5,6,7-tetrahydro-1H-pyrazolo[4,3-c]pyridin-1-yl)piperidin-1-yl)-3-oxopropyl)piperazin-1-yl)methyl)-3-methyl-2-oxo-2,3-dihydro-1H-benzo[d]imidazol-1-yl)piperidine-2,6-dione], the inhibition at 0.01 µM at P300 lay within 20 to 50%. The compound also registered a concentration for half-maximal inhibition (IC50) in experiment [1] of 26.8 nM.

In the case of `CC(=O)N1CCc2c(c(N3CCCc4cc(-c5cnn(C)c5)c(C(F)F)cc43)nn2C2CCN(C(=O)CCCN3CCC(CNc4ccc5c(c4)n(C)c(=O)n5C4CCC(=O)NC4=O)CC3)CC2)C1` (centres unmarked) [P-217, 3-(5-(((1-(4-(4-(5-Acetyl-3-(7-(difluoromethyl)-6-(1-methyl-1H-pyrazol-4-yl)-3,4-dihydroquinolin-1(2H)-yl)-4,5,6,7-tetrahydro-1H-pyrazolo[4,3-c]pyridin-1-yl)piperidin-1-yl)-4-oxobutyl)piperidin-4-yl)methyl)amino)-3-methyl-2-oxo-2,3-dihydro-1H-benzo[d]imidazol-1-yl)piperidine-2,6-dione], the inhibition at 0.01 µM on P300 is 50 to 80%. The compound also came in with an IC50 in experiment [1] of 21.6 nM.

With `CC(=O)N1CCc2c(c(N3CCCc4cc(-c5cnn(C)c5)c(C(F)F)cc43)nn2C2CCN(C(=O)CCN3CCC(CNc4ccc5c(c4)n(C)c(=O)n5C4CCC(=O)NC4=O)CC3)CC2)C1` (centres unmarked) [P-218, 3-(5-(((1-(3-(4-(5-Acetyl-3-(7-(difluoromethyl)-6-(1-methyl-1H-pyrazol-4-yl)-3,4-dihydroquinolin-1(2H)-yl)-4,5,6,7-tetrahydro-1H-pyrazolo[4,3-c]pyridin-1-yl)piperidin-1-yl)-3-oxopropyl)piperidin-4-yl)methyl)amino)-3-methyl-2-oxo-2,3-dihydro-1H-benzo[d]imidazol-1-yl)piperidine-2,6-dione], at P300, the inhibition at 0.01 µM is over 80%. In addition, the half-inhibitory concentration (IC50) in experiment [1] worked out at 18.7 nM.

For `CC(=O)N1CCc2c(c(N3CCCc4cc(-c5cnn(C)c5)c(C(F)F)cc43)nn2C2CCN(C(=O)CN3CCN(CC#Cc4ccc5c(c4)n(C)c(=O)n5C4CCC(=O)NC4=O)CC3)CC2)C1` (centres unmarked) [P-219, 3-(5-(3-(4-(2-(4-(5-Acetyl-3-(7-(difluoromethyl)-6-(1-methyl-1H-pyrazol-4-yl)-3,4-dihydroquinolin-1(2H)-yl)-4,5,6,7-tetrahydro-1H-pyrazolo[4,3-c]pyridin-1-yl)piperidin-1-yl)-2-oxoethyl)piperazin-1-yl)prop-1-yn-1-yl)-3-methyl-2-oxo-2,3-dihydro-1H-benzo[d]imidazol-1-yl)piperidine-2,6-dione], the inhibition at 0.01 µM on P300 is 20 to 50%. The same compound showed an IC50 in experiment [1] of 64.7 nM.

With `CC(=O)N1CCc2c(c(N3CCCc4cc(-c5cnn(C)c5)c(C(F)F)cc43)nn2C2CCN(C(=O)CN3CCN(CCCc4ccc5c(c4)n(C)c(=O)n5C4CCC(=O)NC4=O)CC3)CC2)C1` (centres unmarked) [P-220, 3-(5-(3-(4-(2-(4-(5-Acetyl-3-(7-(difluoromethyl)-6-(1-methyl-1H-pyrazol-4-yl)-3,4-dihydroquinolin-1(2H)-yl)-4,5,6,7-tetrahydro-1H-pyrazolo[4,3-c]pyridin-1-yl)piperidin-1-yl)-2-oxoethyl)piperazin-1-yl)propyl)-3-methyl-2-oxo-2,3-dihydro-1H-benzo[d]imidazol-1-yl)piperidine-2,6-dione], the inhibition at 0.01 µM at P300 fell in the range of 50 to 80%. In addition, the 50% inhibitory concentration (IC50) in experiment [1] worked out at 15.5 nM.

`CC(=O)N1CCc2c(c(N3CCCc4cc(-c5cnn(C)c5)c(C(F)F)cc43)nn2C2CCN(C(=O)CCN3CCC(CCc4ccc5c(c4)n(C)c(=O)n5C4CCC(=O)NC4=O)CC3)CC2)C1` (centres unmarked) [P-221, 3-(5-(2-(1-(3-(4-(5-acetyl-3-(7-(difluoromethyl)-6-(1-methyl-1H-pyrazol-4-yl)-3,4-dihydroquinolin-1(2H)-yl)-4,5,6,7-tetrahydro-1H-pyrazolo[4,3-c]pyridin-1-yl)piperidin-1-yl)-3-oxopropyl)piperidin-4-yl)ethyl)-3-methyl-2-oxo-2,3-dihydro-1H-benzo[d]imidazol-1-yl)piperidine-2,6-dione]: the inhibition at 0.01 µM at P300 was over 80%. Besides, the concentration for half-maximal inhibition (IC50) in experiment [1] is 2.5 nM.

Turning to `CC(=O)N1CCc2c(c(N3CCCc4cc(-c5cnn(C)c5)c(C(F)F)cc43)nn2C2CCN(C(=O)CCCN3CCC(CCc4ccc5c(c4)n(C)c(=O)n5C4CCC(=O)NC4=O)CC3)CC2)C1` (centres unmarked) [P-222, 3-(5-(2-(1-(4-(4-(5-acetyl-3-(7-(difluoromethyl)-6-(1-methyl-1H-pyrazol-4-yl)-3,4-dihydroquinolin-1(2H)-yl)-4,5,6,7-tetrahydro-1H-pyrazolo[4,3-c]pyridin-1-yl)piperidin-1-yl)-4-oxobutyl)piperidin-4-yl)ethyl)-3-methyl-2-oxo-2,3-dihydro-1H-benzo[d]imidazol-1-yl)piperidine-2,6-dione], the inhibition at 0.01 µM on P300 was over 80%. Also, the concentration for half-maximal inhibition (IC50) in experiment [1] was found to be 1.4 nM.

With `CC(=O)N1CCc2c(c(N3CCCc4cc(-c5cnn(C)c5)c(C(F)F)cc43)nn2C2CCN(C(=O)CCCN3CCC(C#Cc4cccc5c4ccn5C4CCC(=O)NC4=O)CC3)CC2)C1` (centres unmarked) [P-223, 3-(4-((1-(4-(4-(5-Acetyl-3-(7-(difluoromethyl)-6-(1-methyl-1H-pyrazol-4-yl)-3,4-dihydroquinolin-1(2H)-yl)-4,5,6,7-tetrahydro-1H-pyrazolo[4,3-c]pyridin-1-yl)piperidin-1-yl)-4-oxobutyl)piperidin-4-yl)ethynyl)-1H-indol-1-yl)piperidine-2,6-dione], the inhibition at 0.01 µM at P300 was 50 to 80%. In experiment [1], the IC50 amounted to 43.7 nM.

With `CC(=O)N1CCc2c(c(N3CCCc4cc(-c5cnn(C)c5)c(C(F)F)cc43)nn2C2CCN(C(=O)CCCN3CCN(CC#Cc4cccc5c4n(C)c(=O)n5C4CCC(=O)NC4=O)CC3)CC2)C1` (centres unmarked) [P-224, 3-(4-(3-(4-(4-(4-(5-acetyl-3-(7-(difluoromethyl)-6-(1-methyl-1H-pyrazol-4-yl)-3,4-dihydroquinolin-1(2H)-yl)-4,5,6,7-tetrahydro-1H-pyrazolo[4,3-c]pyridin-1-yl)piperidin-1-yl)-4-oxobutyl)piperazin-1-yl)prop-1-yn-1-yl)-3-methyl-2-oxo-2,3-dihydro-1H-benzo[d]imidazol-1-yl)piperidine-2,6-dione], the inhibition at 0.01 µM on P300 was over 80%. The compound also came in with a concentration for half-maximal inhibition (IC50) in experiment [1] of 9.9 nM.

In the case of `CC(=O)N1CCc2c(c(N3CCCc4cc(-c5cnn(C)c5)c(C(F)F)cc43)nn2C2CCN(C(=O)CCCN3CCN(CCCc4cccc5c4n(C)c(=O)n5C4CCC(=O)NC4=O)CC3)CC2)C1` (centres unmarked) [P-225, 3-(4-(3-(4-(4-(4-(5-Acetyl-3-(7-(difluoromethyl)-6-(1-methyl-1H-pyrazol-4-yl)-3,4-dihydroquinolin-1(2H)-yl)-4,5,6,7-tetrahydro-1H-pyrazolo[4,3-c]pyridin-1-yl)piperidin-1-yl)-4-oxobutyl)piperazin-1-yl)propyl)-3-methyl-2-oxo-2,3-dihydro-1H-benzo[d]imidazol-1-yl)piperidine-2,6-dione], the inhibition at 0.01 µM on P300 was in the range of 50 to 80%. Also, the IC50 in experiment [1] amounted to 43.4 nM.

`CC(=O)N1CCc2c(c(N3CCCc4cc(-c5cnn(C)c5)c(C(F)F)cc43)nn2C2CCN(C(=O)CN3CCC(C#Cc4cccc5c4n(C)c(=O)n5C4CCC(=O)NC4=O)CC3)CC2)C1` (centres unmarked) [P-227, 3-(4-((1-(2-(4-(5-acetyl-3-(7-(difluoromethyl)-6-(1-methyl-1H-pyrazol-4-yl)-3,4-dihydroquinolin-1(2H)-yl)-4,5,6,7-tetrahydro-1H-pyrazolo[4,3-c]pyridin-1-yl)piperidin-1-yl)-2-oxoethyl)piperidin-4-yl)ethynyl)-3-methyl-2-oxo-2,3-dihydro-1H-benzo[d]imidazol-1-yl)piperidine-2,6-dione]: the inhibition at 0.01 µM at P300 was over 80%. The midpoint of inhibition in experiment [1], the IC50, lay at 1.8 nM.

The record behind these values is patent US20240100170A1, “CYCLIC-AMP RESPONSE ELEMENT BINDING PROTEIN (CBP) AND/OR ADENOVIRAL E1A BINDING PROTEIN OF 300 KDA (P300) DEGRADATION COMPOUNDS AND METHODS OF USE” (CULLGEN (SHANGHAI), INC., priority 2020, published 2024).
